Experimental data as given in ChEMBL document CHEMBL1909046, “DrugMatrix in vitro pharmacology data”.
Where a SMILES comes first, the peptide text is derived from it. Bridges are numbered along the chain shown (N, C = ends). [ ]: non-standard residue; d: D form. The star is where a group is joined. Threoninol(2S,3R) = C[C@@H](O)[C@H](CO)N*

Columns and labels:
[1] = target: Aldo-keto reductase family 1 member B1 (Rattus norvegicus, UniProt P07943); test: biochemical; type: tissue-based, Lens of camera-type eye;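 further: inhibition of aldose reductase enzyme activity, measured with DL-glyceraldehyde as the substrate; in other assays of this panel Not Active means under 50% inhibition at 10 µM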
[2] = target: 5-hydroxytryptamine receptor 1B (Rattus norvegicus, UniProt P28564); type: cell membranes, Wistar, Cerebral cortex, Membrane; further: in other assays of this panel Not Active means under 50% inhibition at 10 µM
[3] = target: T1, Substance-K receptor (Homo sapiens, UniProt P21452); type: cell membranes, CHO, Membrane; settings: cho; further: in other assays of this panel Not Active means under 50% inhibition at 10 µM
T1 sequence (P21452 whole entry): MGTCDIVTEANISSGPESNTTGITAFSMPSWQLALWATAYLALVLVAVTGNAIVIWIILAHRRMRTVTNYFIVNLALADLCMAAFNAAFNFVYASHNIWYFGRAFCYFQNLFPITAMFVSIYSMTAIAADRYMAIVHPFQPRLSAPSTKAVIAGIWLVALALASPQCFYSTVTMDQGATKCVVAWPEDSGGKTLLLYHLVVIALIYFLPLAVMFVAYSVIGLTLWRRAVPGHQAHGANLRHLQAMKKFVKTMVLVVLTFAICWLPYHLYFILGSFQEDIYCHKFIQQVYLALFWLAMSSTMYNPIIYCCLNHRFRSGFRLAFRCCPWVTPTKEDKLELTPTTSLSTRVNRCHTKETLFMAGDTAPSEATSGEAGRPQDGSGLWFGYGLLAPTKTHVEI

[4] = DRUGMATRIX: Phosphodiesterase PDE3 enzyme inhibition (substrate: [3H]cAMP + cAMP); type: tissue-based, Homo sapiens; settings: platelet; Not Active = under 50% inhibition at 10 µM
[5] = target: T2, Adenosine receptor A3 (Homo sapiens, UniProt P0DMS8); type: cell membranes, CHO-K1, Membrane;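 further: radioligand binding assay with AB-MECA serving as the labeled ligand; in other assays of this panel Not Active means under 50% inhibition at 10 µM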
T2 sequence (P0DMS8 whole entry): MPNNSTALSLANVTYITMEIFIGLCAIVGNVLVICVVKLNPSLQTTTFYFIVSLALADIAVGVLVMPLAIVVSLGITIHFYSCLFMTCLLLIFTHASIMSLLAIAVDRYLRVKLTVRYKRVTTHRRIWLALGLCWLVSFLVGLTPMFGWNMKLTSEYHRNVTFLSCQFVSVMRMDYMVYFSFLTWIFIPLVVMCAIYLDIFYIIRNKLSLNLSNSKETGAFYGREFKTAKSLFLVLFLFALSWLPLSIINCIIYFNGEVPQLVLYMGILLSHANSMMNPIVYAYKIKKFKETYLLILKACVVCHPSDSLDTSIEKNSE

[6] = target: T3, Alpha-1A adrenergic receptor (Rattus norvegicus, UniProt P43140); test: DRUGMATRIX: Alpha-1A adrenergic receptor radioligand binding (ligand: prazosin); type: cell membranes, Wistar, Submaxillary gland, Membrane; settings: Not Active = under 50% inhibition at 10 µM
T3 sequence (P43140 whole entry): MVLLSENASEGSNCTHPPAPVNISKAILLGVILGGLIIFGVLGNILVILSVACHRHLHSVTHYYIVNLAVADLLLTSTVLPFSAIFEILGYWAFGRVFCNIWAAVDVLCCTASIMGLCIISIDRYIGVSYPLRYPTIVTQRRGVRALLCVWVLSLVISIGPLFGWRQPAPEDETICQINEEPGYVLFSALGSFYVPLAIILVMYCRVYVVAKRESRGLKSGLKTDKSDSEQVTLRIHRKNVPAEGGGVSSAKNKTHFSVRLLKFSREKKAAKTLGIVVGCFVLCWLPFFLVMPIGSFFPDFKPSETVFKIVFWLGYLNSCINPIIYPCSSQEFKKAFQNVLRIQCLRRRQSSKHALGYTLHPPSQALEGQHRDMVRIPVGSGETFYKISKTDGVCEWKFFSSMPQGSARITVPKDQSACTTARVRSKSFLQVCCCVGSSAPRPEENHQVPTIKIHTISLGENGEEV

5-hydroxytryptamine receptor 1B, sequence (P28564 whole entry): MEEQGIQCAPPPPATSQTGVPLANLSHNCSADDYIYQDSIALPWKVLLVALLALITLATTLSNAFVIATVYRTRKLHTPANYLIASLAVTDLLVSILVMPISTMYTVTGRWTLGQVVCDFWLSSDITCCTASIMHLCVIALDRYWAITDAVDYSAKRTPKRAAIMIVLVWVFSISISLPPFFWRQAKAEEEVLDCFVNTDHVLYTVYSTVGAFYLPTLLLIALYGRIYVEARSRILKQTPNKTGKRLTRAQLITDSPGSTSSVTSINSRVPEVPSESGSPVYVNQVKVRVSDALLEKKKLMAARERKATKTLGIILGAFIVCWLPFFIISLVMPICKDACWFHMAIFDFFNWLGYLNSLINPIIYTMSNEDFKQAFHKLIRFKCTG

Compound | IC50 [1] | Ki [1] | IC50 [2] | Ki [2] | IC50 [3] | Ki [3] | IC50 [4] | Ki [4] | IC50 ([5]; cho-k1) | Ki ([5]; cho-k1) | IC50 [6] | Ki [6] | IC50 ([5]; read-out: IC50) | Ki ([5]; read-out: Ki)
CADMIUM DICHLORIDE | Not Active | Not Active | Not Active | Not Active | Not Active | Not Active | Not Active | Not Active | Not Active | Not Active | Not Active | Not Active |  | 
CCCN(CCC)C(=O)C(CCC(=O)O)NC(=O)c1ccccc1 (stereo not drawn) [PROGLUMIDE] | Not Active |  | Not Active |  | Not Active |  | Not Active | Not Active | Not Active |  | Not Active |  |  | 
O=C(N[C@H](CO)[C@H](O)c1ccc([N+](=O)[O-])cc1)C(Cl)Cl [CHLORAMPHENICOL] | Not Active |  | Not Active |  | Not Active |  | Not Active | Not Active | Not Active |  | Not Active |  |  | 
CCCCOc1ccc(OCCCN2CCOCC2)cc1 [PRAMOXINE] | Not Active |  | Not Active |  | Not Active |  | Not Active | Not Active | Not Active |  | Not Active |  |  | 
CC(C)(C(=O)c1cccnc1)c1cccnc1 [METYRAPONE] | Not Active |  | Not Active |  | Not Active |  | Not Active | Not Active | Not Active |  | Not Active |  |  | 
CC(=O)Nc1cccc(O)c1 [METACETAMOL] | Not Active |  | Not Active |  | Not Active |  | Not Active | Not Active | Not Active |  | Not Active |  |  | 
NC(=O)c1cnccn1 [PYRAZINAMIDE] | Not Active |  | Not Active |  | Not Active |  | Not Active | Not Active | Not Active |  | Not Active |  |  | 
CC[C@@H](CO)NCCN[C@@H](CC)CO [ETHAMBUTOL] | Not Active |  | Not Active |  | Not Active |  | Not Active | Not Active | Not Active |  | Not Active |  |  | 
CC(C)(Oc1ccc(C2CCCc3ccccc32)cc1)C(=O)O (stereo not drawn) [NAFENOPIN] | Not Active |  | Not Active |  | Not Active |  | Not Active | Not Active | Not Active |  | Not Active |  |  | 
C[C@@H]1C[C@@H]([C@H](O)CC2CC(=O)NC(=O)C2)C(=O)[C@@H](C)C1 [CYCLOHEXIMIDE] | Not Active |  | Not Active |  | Not Active |  | Not Active | Not Active | Not Active |  | Not Active |  |  | 
CCn1cc(C(=O)O)c(=O)c2cc(F)c(N3CCN(C)CC3)cc21 [PEFLOXACIN] | Not Active |  | Not Active |  | Not Active |  | Not Active | Not Active | Not Active |  | Not Active |  |  | 
CCN(CC)CCOC(=O)c1ccc(N)cc1 [PROCAINE] | Not Active |  | Not Active |  | Not Active |  | Not Active | Not Active | Not Active |  | Not Active |  |  | 
CCCC(CCC)C(=O)O [VALPROIC ACID] | Not Active |  | Not Active |  | Not Active |  | Not Active | Not Active | Not Active |  | Not Active |  |  | 
S=C=Nc1cccc2ccccc12 [1-NAPHTHYLISOTHIOCYANATE] | Not Active |  | Not Active |  | Not Active |  | Not Active | Not Active |  |  | Not Active |  | 6.1 µM | 3.45 µM
COc1ccc2cc([C@H](C)C(=O)O)ccc2c1 [NAPROXEN] | Not Active |  | Not Active |  | Not Active |  |  |  | Not Active |  | Not Active |  |  | 
Cc1ccccc1C(=O)N1CCC(Cc2ccccc2)CC1 | Not Active |  | Not Active |  | Not Active |  | Not Active | Not Active | Not Active |  | Not Active |  |  | 
C[C@@H](O)[C@H](CO)NC(=O)[C@@H]1CSSC[C@H](NC(=O)[C@H](N)Cc2ccccc2)C(=O)N[C@@H](Cc2ccccc2)C(=O)N[C@H](Cc2c[nH]c3ccccc23)C(=O)N[C@@H](CCCCN)C(=O)N[C@@H]([C@@H](C)O)C(=O)N1 (H-[dF]CF[dW]KTC-{Threoninol(2S,3R)}; disulfide 2-7) | Not Active |  | Not Active |  | Not Active |  | Not Active | Not Active | Not Active |  | Not Active |  |  | 
Cc1nccn1CC1CCc2c(c3ccccc3n2C)C1=O (stereo not drawn) [ONDANSETRON] | Not Active |  | Not Active |  | Not Active |  | Not Active | Not Active | Not Active |  | Not Active |  |  | 
C#C[C@]1(O)CC[C@H]2[C@@H]3CCc4cc(OC)ccc4[C@H]3CC[C@@]21C [MESTRANOL] | Not Active |  | Not Active |  | Not Active |  | Not Active | Not Active | Not Active |  | Not Active |  |  | 
COc1cc2c(c3oc(=O)c4c(c13)CCC4=O)[C@@H]1C=CO[C@@H]1O2 [AFLATOXIN] | Not Active | Not Active | Not Active | Not Active | Not Active | Not Active | Not Active | Not Active | Not Active | Not Active | Not Active | Not Active |  | 
CC1(C)O[C@@H]2C[C@H]3[C@@H]4C[C@H](F)C5=CC(=O)CC[C@]5(C)[C@H]4[C@@H](O)C[C@]3(C)[C@]2(C(=O)CO)O1 [FLURANDRENOLIDE] | Not Active |  | Not Active |  | Not Active |  | Not Active | Not Active | Not Active |  | Not Active |  |  | 
CC1(C)O[C@@H]2C[C@H]3[C@@H]4C[C@H](F)C5=CC(=O)C=C[C@]5(C)[C@@]4(F)[C@@H](O)C[C@]3(C)[C@]2(C(=O)CO)O1 [FLUOCINOLONE ACETONIDE] | Not Active |  | Not Active |  | Not Active |  | Not Active | Not Active | Not Active |  | Not Active |  |  | 
CC(C(=O)O)c1cccc(C(=O)c2ccccc2)c1 (stereo not drawn) [KETOPROFEN] | Not Active |  | Not Active |  | Not Active |  | Not Active | Not Active | Not Active |  | Not Active |  |  | 
NC(=O)NO [HYDROXYUREA] | Not Active |  | Not Active |  | Not Active |  | Not Active | Not Active | Not Active |  | Not Active |  |  | 
O=c1ccc2ccccc2o1 [COUMARIN] | Not Active |  | Not Active |  | Not Active |  | Not Active | Not Active | Not Active |  | Not Active |  |  | 
CN1C(=O)COc2c(C(=O)NC3CN4CCC3CC4)cc(Cl)cc21 (stereo not drawn) [AZASETRON] | Not Active |  | Not Active |  | Not Active |  | Not Active | Not Active | Not Active |  | Not Active |  |  | 
O=C1CC2(CCCC2)CC(=O)N1CCCCN1CCN(c2ncccn2)CC1 [BUSPIRONE] | Not Active |  | Not Active |  | Not Active |  | Not Active | Not Active | Not Active |  |  |  |  | 
C/C=C/C[C@@H](C)[C@@H](O)[C@H]1C(=O)N[C@@H](CC)C(=O)N(C)CC(=O)N(C)[C@@H](CC(C)C)C(=O)N[C@@H](C(C)C)C(=O)N(C)[C@@H](CC(C)C)C(=O)N[C@@H](C)C(=O)N[C@H](C)C(=O)N(C)[C@@H](CC(C)C)C(=O)N(C)[C@@H](CC(C)C)C(=O)N(C)[C@@H](C(C)C)C(=O)N1C [CYCLOSPORINE] | Not Active |  | Not Active |  |  |  | Not Active | Not Active | Not Active |  | Not Active |  |  | 
